This note sets out measurements from patent US4916126A, “Diacyl derivatives of 4-(trialkylbenzyl)-piperazinyl compounds” (Ciba-Geigy Corporation, priority 1988, dated 1990).

Assay [1] concerns serum lipoproteins (VLDL, LDL and HDL). In words: reduction of serum lipoproteins (VLDL, LDL and HDL) in genetically hypercholesterolaemic rats (procedure A) and normolipaemic rats (procedure B). Type of assay: in vivo. Conditions: repeated administration of 30 mg/kg daily, oral. How it is done: In contrast, the diacyl compounds of the present invention have, if at all, only a marginal antibiotic action.
Albino rats having a body weight of from 180 to 240 g and having free access to normal rat food and drinking water are used, Sprague Dawley derivatives of the strain Tif:RAI in procedure A and animals of the Wistar strain IVa-WI in procedure B. The test compound is administered orally in a polyethylene glycol solution (average molecular weight 400) to groups of from 8 to 10 rats, in procedure A once daily at 8 a.m. for three consecutive days and twice, at 8 a.m. and 4 p.m., on the fourth day, and in the case of procedure B, daily for 5 consecutive days. In experiment A the animals are sacrificed 16 hours, and in experiment B two hours, after the final administration by bleeding from the neck under anaesthesia with ether. The animals are given no food during the 16 hours before they are sacrificed. […] The serum lipoproteins are separated using an unltracentrifuge by means of 24-hour centrifugation at 78,000 g, 78,000 g and 109,000 g in salt solutions having densities of 1.006, 1.040 and 1.21, respectively, and are analysed enzymatically for their content of cholesterol and triglycerides using the test systems supplied, for example, by Miles (Lausanne, Switzerland) and Bohringer (Mannheim, Federal Republic of Germany).

Assay [2] deals with RNA polymerase of Escherichia coli (Escherichia coli, UniProt P0A8V2). In words: inhibition of the RNA polymerase of Escherichia coli in vitro. Type of assay: biochemical. Conditions: not achieved even with 100 μg/ml. The source says:
The antibiotic action is ascertained, for example, on the one hand in vitro by determining the mean effective concentration EC50 for the inhibition of the RNA polymerase of Escherichia coli and by determining the minimum inhibitory concentration MIC in a conventional plate test, and on the other hand in vivo, using infected mice and rats, by determining the ED50 (effective dose that ensures the survival of 50% of the experimental animals). There are used as micro-organisms for the present purpose especially Mycobacterium tuberculosis TB H37 Rv and Staphylococcus aureus. In the case of compounds having a lipid-reducing indication, an antibiotic activity is regarded as disadvantageous since it can result in the formation of strains of micro-organisms that are resistant to antibiotics, especially when the compounds are administered over a prolonged period.

Assay [3] deals with Staphylococcus aureus. In words: minimum inhibitory concentration in a conventional plate test. Format: cell-based. Conditions: read-out: MIC for various pathogenic strains of Staphylococcus aureus.
The subject of assay [4] is Staphylococcus aureus. As to the kind of experiment: in vivo antibiotic action in mice infected with Staphylococcus aureus. The conditions noted are these: single dose of 200 mg/kg.
Assay [5] concerns Mycobacterium tuberculosis TB H37 Rv and Staphylococcus aureus. In words: antibiotic action, in vitro and in vivo tests as a whole.

Values after ≈ are worked out from the molar mass of the structure shown. A value given as a limit tells only on which side of the number the result lay.

RNA polymerase of Escherichia coli, sequence (P0A8V2 whole entry): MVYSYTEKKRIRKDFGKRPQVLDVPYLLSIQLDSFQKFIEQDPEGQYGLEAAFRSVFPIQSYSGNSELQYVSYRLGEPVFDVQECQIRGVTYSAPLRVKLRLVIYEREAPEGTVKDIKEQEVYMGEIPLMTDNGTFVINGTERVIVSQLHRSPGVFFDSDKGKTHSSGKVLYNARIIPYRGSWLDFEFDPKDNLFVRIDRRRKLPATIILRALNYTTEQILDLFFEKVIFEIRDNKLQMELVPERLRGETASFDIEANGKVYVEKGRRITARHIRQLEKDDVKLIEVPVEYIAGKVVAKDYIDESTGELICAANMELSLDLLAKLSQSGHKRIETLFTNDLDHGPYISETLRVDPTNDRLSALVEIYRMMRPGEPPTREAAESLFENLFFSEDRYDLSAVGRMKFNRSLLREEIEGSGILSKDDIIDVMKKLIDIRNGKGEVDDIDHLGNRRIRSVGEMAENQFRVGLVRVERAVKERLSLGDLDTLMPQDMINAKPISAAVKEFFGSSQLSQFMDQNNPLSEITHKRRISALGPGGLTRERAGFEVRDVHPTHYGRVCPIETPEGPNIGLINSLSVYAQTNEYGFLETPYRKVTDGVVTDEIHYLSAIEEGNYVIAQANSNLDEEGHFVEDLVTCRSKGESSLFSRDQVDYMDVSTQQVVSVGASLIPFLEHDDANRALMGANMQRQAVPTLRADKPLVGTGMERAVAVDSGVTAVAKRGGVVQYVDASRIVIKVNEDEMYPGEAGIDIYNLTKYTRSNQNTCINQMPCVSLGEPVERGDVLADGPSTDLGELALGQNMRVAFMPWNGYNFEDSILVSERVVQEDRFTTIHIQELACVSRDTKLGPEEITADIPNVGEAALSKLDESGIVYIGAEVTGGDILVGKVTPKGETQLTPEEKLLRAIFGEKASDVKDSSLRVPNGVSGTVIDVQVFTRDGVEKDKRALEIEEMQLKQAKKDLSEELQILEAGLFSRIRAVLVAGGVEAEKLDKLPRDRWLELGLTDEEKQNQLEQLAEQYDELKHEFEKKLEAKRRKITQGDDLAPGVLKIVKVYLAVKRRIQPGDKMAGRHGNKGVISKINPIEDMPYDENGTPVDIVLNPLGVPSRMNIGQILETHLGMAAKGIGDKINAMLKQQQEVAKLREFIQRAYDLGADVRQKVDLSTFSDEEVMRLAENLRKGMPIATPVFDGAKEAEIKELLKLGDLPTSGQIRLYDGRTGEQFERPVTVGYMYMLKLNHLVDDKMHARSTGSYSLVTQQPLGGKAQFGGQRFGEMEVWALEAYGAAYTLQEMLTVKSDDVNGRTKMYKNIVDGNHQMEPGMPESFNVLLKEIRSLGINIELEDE
RNA polymerase of Escherichia coli, sequence (P0A8T7 whole entry partner): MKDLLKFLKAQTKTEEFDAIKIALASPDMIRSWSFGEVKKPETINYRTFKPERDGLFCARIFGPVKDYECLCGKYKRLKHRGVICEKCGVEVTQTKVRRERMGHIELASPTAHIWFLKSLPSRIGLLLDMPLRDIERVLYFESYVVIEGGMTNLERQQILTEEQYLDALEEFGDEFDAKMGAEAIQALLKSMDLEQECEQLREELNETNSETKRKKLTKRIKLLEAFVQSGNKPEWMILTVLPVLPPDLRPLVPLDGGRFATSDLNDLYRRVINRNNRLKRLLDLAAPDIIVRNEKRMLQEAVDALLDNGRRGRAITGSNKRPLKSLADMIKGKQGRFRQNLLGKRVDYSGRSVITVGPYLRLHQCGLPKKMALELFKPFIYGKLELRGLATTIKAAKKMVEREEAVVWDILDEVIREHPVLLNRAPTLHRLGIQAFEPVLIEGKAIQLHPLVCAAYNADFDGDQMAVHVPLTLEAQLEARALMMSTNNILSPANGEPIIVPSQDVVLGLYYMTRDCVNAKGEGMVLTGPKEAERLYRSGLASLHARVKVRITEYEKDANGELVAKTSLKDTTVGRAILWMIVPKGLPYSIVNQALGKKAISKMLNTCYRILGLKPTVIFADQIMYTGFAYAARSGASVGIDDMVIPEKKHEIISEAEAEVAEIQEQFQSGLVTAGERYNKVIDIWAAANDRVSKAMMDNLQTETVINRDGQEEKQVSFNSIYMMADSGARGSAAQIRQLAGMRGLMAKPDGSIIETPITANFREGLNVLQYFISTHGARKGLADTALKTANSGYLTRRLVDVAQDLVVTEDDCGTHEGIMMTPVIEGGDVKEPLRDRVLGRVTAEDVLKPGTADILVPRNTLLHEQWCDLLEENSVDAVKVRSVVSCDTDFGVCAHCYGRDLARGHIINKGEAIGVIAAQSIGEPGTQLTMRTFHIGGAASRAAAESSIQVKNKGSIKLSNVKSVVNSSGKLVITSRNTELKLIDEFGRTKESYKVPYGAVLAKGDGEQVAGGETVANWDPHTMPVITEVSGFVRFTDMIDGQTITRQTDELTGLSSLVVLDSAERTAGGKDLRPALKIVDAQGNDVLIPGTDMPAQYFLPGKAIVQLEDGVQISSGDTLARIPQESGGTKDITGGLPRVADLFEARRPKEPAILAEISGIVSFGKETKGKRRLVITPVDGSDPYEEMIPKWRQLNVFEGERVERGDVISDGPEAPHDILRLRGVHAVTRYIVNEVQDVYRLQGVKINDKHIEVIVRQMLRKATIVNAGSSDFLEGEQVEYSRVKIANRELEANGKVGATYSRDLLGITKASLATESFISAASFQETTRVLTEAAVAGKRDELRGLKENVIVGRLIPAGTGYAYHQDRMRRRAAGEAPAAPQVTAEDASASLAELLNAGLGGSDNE
RNA polymerase of Escherichia coli, sequence (P0A7Z4 whole entry partner): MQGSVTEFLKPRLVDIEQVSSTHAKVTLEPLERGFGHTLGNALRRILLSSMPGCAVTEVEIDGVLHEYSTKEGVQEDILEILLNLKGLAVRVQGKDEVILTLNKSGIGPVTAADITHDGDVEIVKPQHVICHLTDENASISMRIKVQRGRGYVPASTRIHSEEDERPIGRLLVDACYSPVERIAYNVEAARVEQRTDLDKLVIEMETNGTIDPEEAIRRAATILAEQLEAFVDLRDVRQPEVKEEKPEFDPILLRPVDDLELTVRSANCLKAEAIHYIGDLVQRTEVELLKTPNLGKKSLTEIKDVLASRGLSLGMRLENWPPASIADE
RNA polymerase of Escherichia coli, sequence (P0A800 2-91 partner limits assumed): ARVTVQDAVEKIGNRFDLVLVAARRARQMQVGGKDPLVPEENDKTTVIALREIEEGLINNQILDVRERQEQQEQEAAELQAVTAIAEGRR

For the molecule `COC1C=COC2(C)Oc3c(C)c(OC(=O)C(C)(C)C)c4c(c3C2=O)C(=O)C(N2CCN(Cc3c(C)cc(C)cc3C)CC2)=C(C4=O)N(C(=O)C(C)(C)C)C(=O)C(C)=CC=CC(C)C(O)C(C)C(O)C(C)C(OC(C)=O)C1C` (stereo not drawn) [8-O,N-dipivaloyl-3-[4-(2,4,6-trimethylbenzyl)-1-piperazinyl]-rifamycin S], in assay [1], the “reduction in the "LDL fraction"” value is 50-70%. Also, the EC50 in assay [2] is greater than 92.6 µM. The minimal inhibitory concentration (MIC) in the assay with Staphylococcus aureus [3] was roughly 64 µg/mL (≈ 59.2 µM). Also, in the assay with Staphylococcus aureus [4], the “antibiotic activity in vivo” value was “antibiotically inactive”. For the same molecule, the antibiotic activity result in assay [5] (overall statement) is reported as “practically no antibiotic activity”. Besides, in assay [5] (refers to RNA polymerase EC50 and Staphylococcus aureus MIC), the “EC50 and MIC values relative to concentrations normally necessary for a corresponding effect” value is on record as “approximately 1000 times”.

What is called EC50 is the midpoint of the concentration-response curve. Lower therefore signals higher potency in that assay. In general, MIC refers to the lowest concentration found to suppress growth.
